Reference: patent US6491922B1, “Methods and compounds for treating autoimmune and vascular disease” (Cornell Research Foundation, Inc., priority 1996, dated 2002)
Entries after “also recorded” stand apart in the source; their conditions may differ.

How the values were obtained:
[1] = system: HIV p24 antigen, U1 cells; assay: HIV p24 antigen production in chronically HIV-infected U1 cells; type: cell-based; conditions: 72 h
Procedure: (§1) LPG, the major surface molecule of Leishmania, has macrophage deactivating functions. Based on the ability of LPG to suppress the generation of ROI and cytokine gene expression, we evaluated the potential that LPG may similarly suppress HIV production. FIGS. 27A-D illustrate the effect of 2 μM LPG pretreatment for 2 h on the induction HIV from chronically HIV-infected monocytic and T cell lines respectively, U1 and ACH-2 cells. LPG treatment of U1 cells for 72 h inhibited basal production of HIV p24 antigen at basal and induction in response to PMA, TNF-α and LPS by 90%, 82%, 60% and 66%, respectively (FIGS. 27A, B). The suppression of HIV p24 antigen production was time-dependent (FIG. 27B). […] The inhibition was also time-dependent. The results are the mean of 2 separate experiments and the SD was less than 10%.

THP-1 cells [2] = assay: LPG and LPG fragment binding to THP-1 cells (indirect immunofluorescence, FACS); set-up: species or system human; conditions: LPG 1 μM
[3] = system: DNA sequence from the −310 to −57 region of the IL-1β promoter; assay: Gel shift assay of nuclear protein binding to IL-1β promoter DNA; type: cell-based, human; conditions: THP-1 cells treated with LPG; preliminary data
THP-1 cells [4] = assay: THP-1 cell viability; type: cell-based, human; conditions: LPG 0.01 to 2 μM, data not shown
[5] = system: HIV p24 antigen, ACH-2 cells; assay: HIV p24 antigen production in chronically HIV-infected ACH-2 cells; type: cell-based; conditions: 72 h
Procedure: as §1

GAPDH mRNA = assay: GAPDH control transcript (Northern analysis, nuclear run-off); type: cell-based, human
IL-1β mRNA [6] = assay: Northern analysis of IL-1β mRNA induction in THP-1 cells; conditions: for amount of IL-1β mRNA in response to LPS: LPS 2 μg/ml 4 h
Procedure: Human monocytes were cultured in endotoxin free complete medium as previously described. […] THP-1 cells were maintained in RPMI-1640 supplemented with 2 mM L-glutamine, 100 U/ml penicillin-streptomycin, 5×10^−5 M β-mercaptoethanol, and 10% heat-inactivated fetal bovine serum (FBS). For experiments to determine the effect of LPG, THP-1 cells (10×10^6 per condition) were washed with RPMI 1640 and resuspended in complete medium composed of RPMI-1640 supplemented with 2 mM L-glutamine, 100 U/ml penicillin and 100 μg/ml streptomycin. These cells were cultured in 24-well plates with or without 0.01 to 2 μM LPG (0.1 to 20 μg/ml) for different times either before (−h), simultaneously with (0 h) or after (+h) the addition of inducers of IL-1β (eg., LPS, TNF-α, or S. epidermidis). Peripheral blood monocytes enumerated after detachment using a rubber policeman were similarly treated or not with LPG and cultured with stimuli. Cell were stimulated with 0.1 to 3 μg/ml LPS, TNF-α (50 ng/ml), 25 to 50 ng/ml PMA for 4 to 24 h, or opsonized heat-killed S. epiderimidis at ratio of 10 particles per cell.
Cells treated with or without LPG and/or inducers of IL-1β were harvested by gentle scrapping using a rubber policeman and sedimented by centrifugation at 500 g for 5 minutes in a microfuge. Total RNA was extracted using RNA STAT-60 solution (TEL-TEST “B” Inc., Friendswood, Tex.), based on a single step method for RNA isolation (P. Chomczynski and N. Sacchi, “Single-step Method of RNA Isolation by Acid Guanidinium Thiocyanate-phenol-chloroform Extraction,” Anal. Biochem., 162:156-59 (1987), hereby incorporated by reference), and quantitated by spectrophotometry. Equal amount of total RNA (15-20 μg per sample) was denatured, loaded onto 1.2% agarose-formaldehyde gel, run for 4 h at 30 volts and subsequently transferred by capillary action onto nylon membrane (0.45 μm pore size, NYTRAN, S&S, Keene, N.H.). Membranes were prehybridized at 42° C. for 4 h in prehybridization buffer (50% formamide, 6×SSPE, and 0.5% SDS), and hybridized in hybridization buffer (50% formamide, 6×SSPE, and 5 SDS) containing 10-15×10^6 cpm of random-priming ^32p-labeled IL-1β cDNA (Boehringer Mannheim GmbH, Mannheim, Germany). […] Washed membranes were exposed to KODAK X-OMAT AR films for 24 to 72 h and to phosphor screens (Molecular Dynamics Ltd., Kent, Tenn.) for 24-28 h. Quantitative analysis of the specific bands was performed using Phosphor Imager Analyzer. […] All percent suppression of IL-1β mRNA values were normalized by the amount of GAPDH present in each condition which varied less than 10% between conditions because equivalent amounts of total RNA were loaded for electrophoresis.

TNF-α transcription = assay: Nuclear run-on assay, TNF-α transcription; type: cell-based, human; conditions: LPG 1 μM pretreatment; LPS 1 μg/ml
NOS mRNA = type: cell-based, human; conditions: IFN-γ-primed macrophages; LPG 2 μM pretreatment; RT/PCR
IL-1β mRNA [7] = assay: Northern analysis of IL-1β mRNA induction in peripheral blood monocytes; conditions: 2 μM LPG pretreatment 2 h, N=2
Text: Human peripheral blood cells from the New York Blood Center (New York, N.Y.) obtained by Hypaque-Ficoll density centrifugation and adherence to plastic are 99% monocytes. […] Human monocytic cells THP-1 (TIB-202) and plasmid containing glyceraldehyde-3-phosphate dehydrogenase [GAPDH] cDNA (cat. #57090) were obtained from American Type Culture Collection (ATCC), Rockville, MdD. […] RPMI-1640, fetal bovine serum, L-glutamine, and penicillin-streptomycin (Gibco, Grand Island, N.Y.); β-mercaptoethanol, phorbol 12-myristate 13-acetate (PMA) and LPS from Escherichia coli serotype 055: B5 were purchased from the Sigma Chemical Co., St. Louis, Miss.
Human monocytes were cultured in endotoxin free complete medium as previously described. […]
Cells treated with or without LPG and/or inducers of IL-1β were harvested by gentle scrapping using a rubber policeman and sedimented by centrifugation at 500 g for 5 minutes in a microfuge. Total RNA was extracted using RNA STAT-60 solution (TEL-TEST “B” Inc., Friendswood, Tex.), based on a single step method for RNA isolation (P. Chomczynski and N. Sacchi, “Single-step Method of RNA Isolation by Acid Guanidinium Thiocyanate-phenol-chloroform Extraction,” Anal. Biochem., 162:156-59 (1987), hereby incorporated by reference), and quantitated by spectrophotometry.

ICAM-1 = assay: Endotoxin-induced ICAM-1 expression on endothelial cells (FACS); type: cell-based, human; conditions: LPG pretreatment 1 h
Procedure: Endothelial cells pretreated with LPG at indicated amounts for 1 h were subsequently challenged with endotoxin. Washed cells incubated with monoclonal antibody specific for E-selectin or ICAM-1 were counter stained with fluorescein labeled anti-murine antibody, fixed and analyzed by FACS.

IL-1β mRNA [8] = assay: IL-1β mRNA stability with actinomycin D in THP-1 cells; type: cell-based, human; conditions: 2 μM LPG simultaneous with LPS 2 μg/ml, actinomycin D after 2 h
Procedure: THP-1 cells (10^7 cells/condition) were stimulated with 2 μg/ml LPS or 2 μg/ml LPS with 2 μM LPG at time 0 h. Actinomycin D (6 μg/ml) was added to all conditions 2 h later and cells were harvested by gentle scraping for extraction of total RNA at the designated time. The 2 h time point after LPS or LPS plus LPG treatment was used as the respective reference for comparison with residual IL-1β mRNA at the later time points. For each condition and time, the total RNA separated on agarose gel, transferred and immobilized on nylon membrane were probed with ^32P-labeled IL-1β cDNA or GAPDH cDNA.

[9] = system: human umbilical vein endothelial cells; assay: LPG and LPG fragment binding to endothelial cells (indirect immunofluorescence, FACS); conditions: LPG 1 μM
endothelial cells = assay: ^3H-lyso-PI binding to endothelial cells; set-up: species or system human; conditions: cold-LPG competition at 20×molar excess; n=2
Procedure: To evaluate whether lyso-PI may directly bind to endothelial cells, endothelial cells (10^6 per ml) were incubated with ^3H-lyso-PI (1 μM [specific activity, ˜10,000 cpm/nmole], 45 min, 25° C.). As a control, endothelial cells were pretreated with LPG (20 μM, 15 min, 25° C.) before the incubation with ^3H-lyso-PI. Following incubation, the cell suspension was layed onto silicone oil (Silicones FC-50, General Electric, Waterford, N.Y.) and cell-bound ^3H-lyso-PI was separated from free-^3H-lyso-PI by centrifugation (10,000 g, 10 min, room temperature). The amount of ^3H-lyso-PI in the cell pellet and in the supernatant were solubilized in Ecoscint (National Diagnostics, Highland Park, N.J.) and quantitated by a β-emission counter (Beckman Instruments, Palo Alto, Calif.).

VCAM-1 = assay: Endotoxin-induced VCAM-1 expression on endothelial cells (FACS); type: cell-based, human

Substance: lipophosphoglycan [LPG]
- inhibition of HIV p24 antigen induction in response to LPS ([1]; 2 μM LPG pretreatment 2 h): 66%
- inhibition of HIV p24 antigen induction in response to PMA ([1]; 2 μM LPG pretreatment 2 h): 82%
- inhibition of HIV p24 antigen induction in response to TNF-α ([1]; 2 μM LPG pretreatment 2 h): 60%
- inhibition of basal production of HIV p24 antigen ([1]; 2 μM LPG): 90%
- time at which LPG binding was obvious (THP-1 cells [2]): 16 min
- LPG binding (THP-1 cells [2]; 1 h): significant LPG was bound
- induction of nuclear protein(s) binding to promoter DNA sequence [3]: induced the presence of a nuclear protein(s) that bound a DNA sequence derived from this region
- effect on cell viability (THP-1 cells [4]): not affected
- inhibition of HIV p24 antigen production in response to LPS ([5]; 2 μM LPG pretreatment 2 h): 69%
- inhibition of HIV p24 antigen production in response to PMA ([5]; 2 μM LPG pretreatment 2 h): 81%
- inhibition of HIV p24 antigen production in response to TNF-α ([5]; 2 μM LPG pretreatment 2 h): 88%
- inhibition of basal production of HIV p24 antigen ([5]; 2 μM LPG): 62%
- effect on constitutive transcription of GAPDH mRNA (GAPDH mRNA; THP-1, Northern analysis): not affected; also recorded: no effect
- effect on GAPDH transcription (GAPDH mRNA; nuclear run-on assay (Example 35)): no effect
- effect on IL-1β mRNA expression in monocytes (IL-1β mRNA [6]; LPG added simultaneously with the endotoxin): exerted an inhibitory effect
- effect of washing to remove LPG on LPG's ability to suppress LPS induction of IL-1β mRNA (IL-1β mRNA [6]; THP-1, 1 or 2 μM LPG 2 h, washed twice, then LPS 4 h): no effect
- suppression of LPS induction of IL-1β mRNA (IL-1β mRNA [6]; THP-1, LPG 2 μM added between 2 h before to 1 h after LPS 2 μg/ml): greater than 90%
- inhibition of TNF-α induced IL-1β mRNA (IL-1β mRNA [6]; THP-1, LPG 2 μM pretreatment 2 h, TNF-α 50 ng/ml, mean±SD, N=5): approximately 50%±10%
- inhibition of S. epidermidis-induced IL-1β mRNA (IL-1β mRNA [6]; THP-1, LPG 2 μM pretreatment for 2 h, N=3): 30±10%
- suppression of S. epidermidis-induced IL-1β mRNA (IL-1β mRNA [6]; THP-1, LPG 2 μM simultaneous with opsonized S. epidermidis, N=3): greater than 80±19%
- suppression of PMA induction of IL-1β mRNA (IL-1β mRNA [6]; THP-1, LPG 2 μM, PMA 25 or 50 ng/ml, N=3): did not suppress
- inhibitory activity on LPS induction of IL-1β mRNA (IL-1β mRNA [6]; THP-1, LPG 1 or 2 μM added 4 h before LPS 2 μg/ml): lost
- effect on S. epidermidis-induced IL-1β mRNA (IL-1β mRNA [6]; THP-1, LPG 2 h after S. epidermidis induction): minimal to no demonstrable effect
- suppression of IL-1β mRNA (IL-1β mRNA [6]; THP-1, LPG added +2 h after LPS stimulation): 70%
- amount of IL-1β mRNA in response to LPS (IL-1β mRNA [6]; THP-1, pretreated 2 h with 1 μM LPG): lower amounts of IL-1β mRNA
- amount of IL-1β mRNA in response to LPS (IL-1β mRNA [6]; THP-1, pretreated 2 h with 2 μM LPG): little or no IL-1β mRNA detected
- maximum inhibition of IL-1β mRNA (dose-dependent) (IL-1β mRNA [6]; THP-1, pretreated 2 h with LPG 0.01 to 2.0 μM, LPS 0.1 to 3 μg/ml): greater than 90%
- inhibition of endotoxin-mediated IL-1β mRNA production (IL-1β mRNA [6]; THP-1, pretreatment with LPG 2 μM, endotoxin 2 μg/ml): completely inhibited
- suppression of endotoxin-mediated TNF-α transcription (TNF-α transcription): −70%
- effect on M. tuberculosis-induction of NOS mRNA (NOS mRNA): suppressed
- inhibition of LPS induction of IL-1β mRNA (IL-1β mRNA [7]; LPS 2 μg/ml): greater than 90%
- inhibition of S. epidermidis induction of IL-1β mRNA (IL-1β mRNA [7]): greater than 80%
- effect on endotoxin-mediated expression of ICAM-1 (ICAM-1): strongly suppressed; also recorded: blockage or suppression
- enhancement of rate of IL-1β mRNA degradation (IL-1β mRNA [8]): approximately 30%
- time at which LPG binding was obvious [9]: 16 min
- LPG binding ([9]; 1 h): significant LPG was bound
- inhibition of ^3H-lyso-PI binding (endothelial cells): 29±3%
- effect on endotoxin-mediated expression of VCAM-1 (VCAM-1): strongly suppressed
